Test results published in patent publication US5646132A, “2(1H)-quinolone compounds” (Adir et Compagnie, priority 1993, dated 1997).

Assays:
[1] = test system: audiogenic (glutamate-dependent) convulsions in DBA/2 mice; test: Audiogenic convulsions test in DBA/2 mice; format: in vivo, mouse (DBA/2); details: for activity by the oral route, audiogenic convulsions: oral administration
From the text: (§1) Furthermore, the compounds of the invention have an in vivo activity which is unique and exceptional for the products of this class. In fact, in the audiogenic convulsions test in DBA/2 mice carried out according to the methodology described by CROUCHER et al.

AMPA receptor = test: Membrane binding, [3H]-AMPA, rat cortex homogenate; details: rat cortex membranes
Method: This is carried out using a rat cortex homogenate. The membrane pellet is prepared in a conventional manner in a sucrose buffer by differential centrifugations, and then frozen until used. After thawing, […] of membrane homogenate are taken up in a Tris-HCl (30 mM), CaCl2 (2.5 mM) buffer, pH 7.4, and incubated at 4° C. for 30 minutes in the presence of 25 μl of [^3 H]-AMPA or [^3 H]-kainate and 25 μl of the test product. Non-specific binding is determined in the presence of 10 μM quisqualate (AMPA binding) or 10 μM kainic acid (kainate binding). The membranes are then isolated by filtration. After drying of the filters, the radioactivity is measured by scintillation.

cortical infarct = test: Permanent focal ischemia in mice (MCA occlusion); format: in vivo
Method: 2) Permanent focal ischemia in mice
This ischemia can be perfectly reproduced in mice by electrocoagulation of MCA, giving rise to a well delimited cortical infarct 24 hours later. This infarct can be easily measured by histological examination.

[2] = test system: neurotoxic excitatory currents in the hippocampus; test: Neurotoxic excitatory currents induced in the hippocampus by stimulation of the glutamatergic pathways (Schaeffer's collaterals); details: read-out: IC50 with respect to neurotoxic excitatory currents induced in the hippocampus
Method: This inhibition is strong and constant since the same IC50 (2 μM) is found with respect to neurotoxic excitatory currents induced in the hippocampus by stimulation of the glutamatergic pathways (Schaeffer's collaterals).

[3] = Audiogenic convulsions test in DBA/2 mice; format: in vivo, mouse (DBA/2); details: mouse, in vivo, IP vs PO
From the text: as §1

[4] = test system: hippocampal pyramidal neurons (CA1); test: Transient global cerebral ischemia in Gerbil; format: in vivo
Method: 1) Transient global cerebral ischemia in Gerbil
Transient and complete arrest of cerebral blood flow which is observed in clinical situation during a cardiac infarct, gives rise to a delayed death of specific vulnerable neurons, especially in hippocampus, a crucial cerebral region for cognitive functions. This phenomenon can be experimentally reproduced after transient occlusion of common carotid arteries.
In Gerbil, a transient occlusion (5 minutes) of carotid arteries gives rise to a total loss of hippocampal pyramidal neurons (CA1). This death can be observed only 3 or 4 days after ischemia. Numerous studies have shown that it could be due essentially to an excessive release of glutamate during the post-ischemic reperfusion.
NBQX (30 mg/kg IP) protects 50% of neurons in case of treatment 30 minutes before then b.i.d. after ischemia until histological measurement 4 days later.

[5] = test system: Kainate current (glutamate receptors; AMPA/kainate receptors); test: Currents induced by kainate in Xenopus oocytes expressing the glutamate receptors; format: cell-based, rat; details: kainate 100 μM, read-out: IC50, inhibition of kainate current
Method: 2/ Currents induced by EAA in Xenopus oocytes
Xenopus oocytes are injected with 50 ng of poly(A)^+ mRNA isolated from rat cerebral cortex, and incubated for 2 to 3 days at 18° C. to permit protein expression therein. The inward currents induced by EAA are measured in a medium of composition: NaCl (82.5 mM), KCl (2.5 mM), CaCl2 (1 mM), MgCl2 (1 mM), NaH2 PO4 (1 mM), HEPES (5 mM), pH 7.4, by the 2-electrode voltage-clamp method (potential=-60 mV). For measurement of the currents induced by NMDA and glycine, MgCl2 is absent from the medium and CaCl2 is brought to a concentration of 2 mM. The EAA agonists that induce the currents are used at the following concentrations: kainate: 100 μm; AMPA: 30 μM; glycine/NMDA: 3/30 μM. The test product is applied 30 seconds before and during the application of the agonist.

[6] = 30 mg/kg IP before then 3 hours after ischemia, significant decrease
[7] = 30 mg/kg, curative only (5 minutes, 1 hour and 2 hours after MCA occlusion)
[8] = 30 mg/kg IP, 30 minutes before then b.i.d. after ischemia, histology 4 days later

SMILES | activity by the oral route, audiogenic convulsions [1] | Ki (AMPA receptor) | change of infarct volume (cortical infarct; [6]) | change of infarct volume (cortical infarct; [7]) | IC50 [2] | ED50 ([1]; Mus musculus, IP administration, read-out: ID50, audiogenic convulsions) | bioavailability index (ID50 IP/ID50 PO) [3] | protection of hippocampal neurons ([4]; 10 mg/kg IP, same conditions) | protection from neuronal death (in words) [4, 8] | IC50 [5] | effect on infarct volume (in words) (cortical infarct; [7]) | protection of neurons [4, 8]
N#Cc1cc2[nH]c(=O)c(=O)[nH]c2cc1[N+](=O)[O-] [CNQX, 6-cyano-7-nitro-2,3-quinoxalinedione, reference compound] | do not have any activity by the oral route | 0.07 µM | – | – | – | – | – | – | – | – | – | –
O=c1[nH]c2cc(Cl)c(Cl)cc2cc1P(=O)(O)O [Example 2, 6,7-Dichloro-2(1H)-quinolone-3-phosphonic acid] | also after oral administration | 0.9 µM | -26% | -23% | 2 µM | 18.7 mg/kg | ~0.3 | 50% | protects completely from neuronal death | 2 µM | – | –
NS(=O)(=O)c1cccc2c1c([N+](=O)[O-])cc1[nH]c(=O)c(=O)[nH]c12 [NBQX, 6-nitro-7-sulfamoylbenzo[f]quinoxaline-2,3-dione, reference compound] | do not have any activity by the oral route | – | -26% | – | – | – | – | – | – | – | remains ineffective | 50%
